In publication PMC4449006, “Targeting KRAS Oncogene in Colon Cancer Cells with 7-Carboxylate Indolo[3,2-b]quinoline Tri-Alkylamine Derivatives” (PLoS ONE, 2015):
pIC50: −log10 of the molar value.

Tests used:
[1] = tested on: KRAS21 G-quadruplex DNA; assay: FRET melting assay, KRAS G-quadruplex DNA; format: binding; conditions: standard deviation < 0.2°C
Method: (§1) The capacity of compounds 1a-d, 2a-d and the standard G4 ligand TMPyP4 (Fig 1) to bind and stabilize KRAS [26] and HSP90A [27] G4 DNA structures as well as duplex DNA (T-loop) was evaluated by a Fluorescence Resonance Energy Transfer (FRET) melting assay. […] It was observed that the basicity of side chains correlates positively with thermal G4 stabilization of all DNA sequences up to an optimal pKa ~ 8.0–9.0 (Fig 2). Heterocyclic amines at the end of alkyl side chain (1b and 2b) appear to improve binding to G4s and complex stabilization compared to the di-ethylamine group (1a and 2a), which cannot be explained by differences in basicity between terminal groups. […] However, this was not observed for the isomeric pair 1a / 2a.
(§2) All oligonucleotides were purchased from Eurofins MWG Synthesis GmbH, Germany. The labeled oligonucleotides used in the FRET assays had attached the donor fluorophore FAM (6-carboxyfluorescein) and the acceptor fluorophore TAMRA (6-carboxytetramethylrhodamine): KRAS21R (5’-FAM-[…]-TAMRA-3’); HSP90A (5’- [FAM]-[…]-[TAMRA]-3’); T-Loop (5’-FAM-[…]-TAMRA-3’). Each oligonucleotide was initially diluted to a storage solution at 100 μM in nuclease free water (not DEPC-treated), purchased from Ambion Applied Biosystems UK.
(§3) The ability of IQ3A and TMPyP4 to stabilize G-quadruplex and duplex DNA sequences was investigated using a Fluorescence Resonance Energy Transfer (FRET) assay. Stock solution of the oligonucleotides sequences at 20 μM and subsequent dilutions were obtained from storage solutions diluting with K-cacodylate buffer pH = 7.4, containing 60 mM K^+ (10 mM potassium cacodylate, 50 mM KCl). The FRET probe sequences were diluted from stock to the correct concentration (0.4 μM) and then annealed by heating to 95°C for 10 min, followed by cooling to RT. Test compounds were prepared as 1 mM in 10% DMSO and 10% 1mM HCl in HPLC-grade water. The rest of the dilutions were performed using FRET buffer. Annealed DNA (50 μL) and compound solution (50 μL) were distributed across 96-well RT-PCR plates (BioRad; MJ Research, Waltham, MA, USA). Relevant controls were also performed to check for interference with the assay. Fluorescence readings were made on a DNA Engine Opticon (MJ Research) with excitation at 450–495 nm and detection at 515–545 nm, taken at intervals of 0.5°C in the range 30–100°C, with a constant temperature being maintained for 30 s prior to each reading to ensure a stable value. Experiments were performed in triplicate. Final analysis of the data was carried out with GraphPad Prism 5.0 software (GraphPad Software, Inc). The advanced curve-fitting function in GraphPad Prism was used for calculation of ΔT m values and associated standard deviations.

[2] = tested on: HEK293T cells; assay: MTS short-term cytotoxicity assay (72 h), HEK293T; format: cell-based, human; conditions: MTS
Method: (§4) The short-term effect of compounds at 72 h on cell growth was studied using colorectal carcinoma cell lines with different KRAS and TP53 genotypes: human colorectal carcinoma HCT116 (mut Kras, wild-type (wt) p53), and human metastatic colorectal adenocarcinoma SW620 (mut Kras, mut p53). In parallel, we also used the immortalized human embryonic kidney cell line HEK293T (wt Kras, wt p53) and normal human colon fibroblast cells CCD18co (wt Kras, wt p53).
(§5) SW620 human colorectal adenocarcinoma cells (European Collection of Cell Cultures, ECACC, Porton Down, Wiltshire, UK), HEK293T human embryonic kidney cells (ATCC, LGC Standards, UK) HCT116 human colon carcinoma cells (ECACC), HCT116 p53(+/+) and p53(−/−) isogenic human colon cancer cells (GRCF Cell Center and Biorepository, the Johns Hopkins University, School of Medicine, Baltimore, MD, USA), were grown in Dulbecco’s modified Eagle’s medium (DMEM) supplemented with 10% fetal bovine serum, and 1% antibiotic/antimycotic (Invitrogen, Grand Island, NY, USA), CCD18co human colon fibroblasts (ATCC, CRL-1459) were grown in Minimum Essential Medium (MEM) supplemented with 10% fetal bovine serum, 1% antibiotic/antimycotic, 2 mM GlutaMAX, 0,1 mM Non-essential amino acids (NEAA) (Invitrogen) and […] Recombinant Human TNF-α (Peprotech, USA) and maintained at 37°C in a humidified atmosphere of 5% CO2.
(§6) Cell viability was evaluated by the tetrazolium dye (MTS) Short-Term Cytotoxicity Assay. […] Following 72 h of compound exposure, cell viability was evaluated using the CellTiter 96 AQueous Non-Radioactive Cell Proliferation Assay (Promega, Madison, WI, USA), using 3-(4,5-dimethylthiazol-2-yl)-5-(3-carboxymethoxyphenyl)-2-(4-sulfophenyl)-2H-tetrazolium, inner salt (MTS) as previously described [35]. Cell viability data were expressed as mean ±SD from at least three independent experiments. IC50 and IC65 values were determined using GaphPad Prism v.5.00 (GraphPad Software). In selected experiments, cell viability was also assessed by trypan blue exclusion assay, and general cell death by LDH activity from cell culture supernatants.

[3] = tested on: CCD18co cells; assay: MTS short-term cytotoxicity assay (72 h), CCD18co; format: cell-based; conditions: Homo sapiens, CCD-18Co, MTS, standard errors ≤ 0.1, read-out: CCD18co IC50
Method: as §4, §5, §6

[4] = tested on: KRAS mRNA; assay: KRAS mRNA steady-state levels by Taqman Real-time RT-PCR; conditions: IC50 concentrations
[5] = tested on: HSP90A G-quadruplex DNA; assay: FRET melting assay, HSP90A G-quadruplex DNA; format: binding; conditions: standard deviation < 0.2°C
Method: as §1, §2, §3

[6] = tested on: HCT116 cells; design: method as in PMID 23960016; conditions: HCT116 vs primary rat hepatocytes; cited from earlier work

CCN(CC)CCOC(=O)c1ccc2c(c1)c1nc3ccccc3c(OCCN(CC)CC)c1n2CCN(CC)CC [1a]
ΔTm (°C) KRAS21 1 μM ([1]; 1 μM compound): 8 °C | ΔTm (°C) KRAS21 2 μM ([1]; 2 μM compound): 12 °C | pIC50 ([2]; Homo sapiens, HEK-293T, standard errors ≤ 0.1, read-out: HEK293T IC50): 5.49 | HEK293T IC65 ([2]; standard errors ≤ 0.1): 6.06 µM | pIC50 [3]: 5.33 | down-regulation of KRAS transcription (mRNA) ([4]; HCT116, 72 h): ~40% | down-regulation of KRAS transcription (mRNA) ([4]; SW620, 72 h): not significantly so | ΔTm (°C) HSP90A 1 μM ([5]; 1 μM compound): 14 °C | ΔTm (°C) HSP90A 2 μM ([5]; 2 μM compound): 20 °C | Selective growth inhibition of KRAS mutant HCT116 cells compared to primary rat hepatocytes [6]: 100 fold
